Laboratory results taken from ChEMBL document CHEMBL2375214, “Evaluation of anti-HCV activity and SAR study of (+)-lycoricidine through targeting of host heat-stress cognate 70 (Hsc70)” (Bioorg Med Chem Lett, 2013).

Key:
Hepatitis C virus [1] = test: Antiviral activity against Hepatitis C virus infected in human Huh7.5 cells after 96 hrs by fluorescence microscopic analysis; format: functional, organism-based, Hepacivirus hominis; conditions: huh-7
[2] = Cytotoxicity against human Huh7.5 cells treated after 96 hrs by MTT assay; format: cell-based, Huh-7
Hepatitis C virus [3] = test: Selectivity index, ratio of CC50 for human Huh7.5 cells to EC50 for Hepatitis C virus; format: toxicity, cell-based, Huh-7; conditions: read-out: Ratio CC50/EC50
[4] = Down regulation of Hsc70 protein expression in Hepatitis C virus-infected human Huh7.5 cells […] at 1 ug/mL after 24 hrs by Western blotting analysis relative to actin expression; format: functional, cell-based; conditions: Huh-7
[5] = Down regulation of Hsc70 protein expression in Hepatitis C virus-infected human Huh7.5 cells at 0.1 ug/mL after 24 hrs by Western blotting analysis relative to actin expression; format: functional, cell-based; conditions: Huh-7
[6] = Down regulation of Hsc70 protein expression in Hepatitis C virus-infected human Huh7.5 cells at 1 ug/mL after 24 hrs by Western blotting analysis relative to actin expression; format: functional, cell-based; conditions: Huh-7
[7] = Down regulation of Hsc70 protein expression in Hepatitis C virus-infected human Huh7.5 cells […] at 0.1 ug/mL after 24 hrs by Western blotting analysis relative to actin expression; format: functional, cell-based; conditions: Huh-7
Huh-7 [8] = test: Inhibition of Hsc70 mRNA expression in Hepatitis C virus-infected human Huh7.5 cells at 100 ug/mL after 24 hrs by RT-PCR analysis relative to control; format: functional; conditions: Huh-7, 24 h
Huh-7 [9] = test: Inhibition of Hsc70 mRNA expression in Hepatitis C virus-infected human Huh7.5 cells at 10 ug/mL after 24 hrs by RT-PCR analysis relative to control; format: functional; conditions: Huh-7, 24 h
[10] = Down regulation of Hsc70 protein expression in Hepatitis C virus-infected human Huh7.5 cells […] at 0.1 ug/mL after 24 hrs by Western blotting analysis relative to control; format: functional, cell-based; parameters: scale not given: the % may be the effect or the level left; conditions: Huh-7
[11] = Down regulation of Hsc70 protein expression in Hepatitis C virus-infected human Huh7.5 cells at 0.1 ug/mL after 24 hrs by Western blotting analysis relative to control; format: functional, cell-based; conditions: Huh-7
[12] = Down regulation of Hsc70 protein expression in Hepatitis C virus-infected human Huh7.5 cells at 10 ug/mL after 24 hrs by Western blotting analysis relative to actin expression; format: functional, cell-based; conditions: Huh-7
[13] = Down regulation of Hsc70 protein expression in Hepatitis C virus-infected human Huh7.5 cells […] at 100 ug/mL after 24 hrs by Western blotting analysis relative to actin expression; format: functional, cell-based; conditions: Huh-7
[14] = Down regulation of Hsc70 protein expression in Hepatitis C virus-infected human Huh7.5 cells at 100 ug/mL after 24 hrs by Western blotting analysis relative to actin expression; format: functional, cell-based; conditions: Huh-7
[15] = Down regulation of Hsc70 protein expression in Hepatitis C virus-infected human Huh7.5 cells […] at 10 ug/mL after 24 hrs by Western blotting analysis relative to actin expression; format: functional, cell-based; conditions: Huh-7

| Structure (SMILES) | EC50 (Hepatitis C virus [1]) [µM] | CC50 at 96 h [2] [µM] | selectivity ratio (Hepatitis C virus [3]) | other results |
| --- | --- | --- | --- | --- |
| CCO[C@@H]1[C@H](OCC)[C@@H](OCC)C=C2c3cc4c(cc3C(=O)N(CC)[C@H]21)OCO4 | > 83 | 252 | < 3.01 |  |
| O[C@@H]1[C@@H](O)C=C2CCN3Cc4cc5c(cc4[C@H]1C23)OCO5 (stereo partly specified) |  |  |  | fold change (FC) [4]: 0.2; fold change (FC) [5]: 0.78; fold change (FC) [6]: 0.79; fold change (FC) [7]: 1.86 |
| C=CCO[C@@H]1[C@H](OCC=C)[C@@H](OCC=C)C=C2c3cc4c(cc3C(=O)N(CC=C)[C@H]21)OCO4 | 74 | 120 | 1.62 |  |
| O=C1N[C@@H]2C(=C[C@H](O)[C@@H](O)[C@H]2O)c2cc3c(cc21)OCO3 | 0.55 | 7.2 | 12.7 | inhibition at 100 µg/mL (Huh-7 [8]): 83.1%; inhibition at 10 µg/mL (Huh-7 [9]): 91.4%; Activity [10]: 6%; Activity [11]: 28%; fold change (FC) [5]: 0.72; fold change (FC) [7]: 0.06 |
| O[C@H]1[C@@H]2c3cc4c(cc3CN3CC[C@@H](C[C@H]1O)[C@H]23)OCO4 |  |  |  | fold change (FC) [12]: 0.6; fold change (FC) [13]: 0.1; fold change (FC) [4]: 1.16; fold change (FC) [5]: 1.01; fold change (FC) [14]: 0.67; fold change (FC) [6]: 0.68; fold change (FC) [7]: 1.2; fold change (FC) [15]: 1.22 |
| O[C@@H]1[C@H](O)[C@@H](O)C=C2c3cc4c(cc3CN[C@H]21)OCO4 | 33 | > 360 | > 10.9 |  |
| CC(=O)O[C@@H]1[C@H](OC(C)=O)[C@@H](OC(C)=O)C=C2c3cc4c(cc3C(=O)N[C@H]21)OCO4 [LYCORICIDINE TRIACETATE] | > 0.98 | 33 | < 33.8 |  |
| O=C1N[C@H]2[C@H](O)[C@H](O)[C@@H](O)C[C@@H]2c2cc3c(cc21)OCO3 | 0.68 | 23 | 33.8 |  |
| CCO[C@@H]1[C@H](OCC)[C@@H](OCC)C[C@@H]2c3cc4c(cc3C(=O)N(CC)[C@@H]12)OCO4 | 43 | > 300 | > 6.98 |  |
| C=CCO[C@@H]1[C@H](OCC=C)[C@@H](OCC=C)C[C@@H]2c3cc4c(cc3C(=O)N(CC=C)[C@@H]12)OCO4 | 12 | 38 | 3.17 |  |
| CO[C@@H]1[C@H](OC)[C@@H](OC)C[C@@H]2c3cc4c(cc3C(=O)N(C)[C@@H]12)OCO4 | 54 | > 300 | > 5.56 |  |

More lines, main results first:

| EC50 (Hepatitis C virus [1]) [µM] | Structure (SMILES) | CC50 at 96 h [2] [µM] | selectivity ratio (Hepatitis C virus [3]) | other results |
| --- | --- | --- | --- | --- |
| 75 | CC1(C)O[C@@H]2[C@H](O1)[C@@H](O[Si](C)(C)C(C)(C)C)C=C1c3cc4c(cc3C(=O)N[C@H]12)OCO4 | 160 | 2.13 |  |
| 93 | CO[C@H]1C=C2c3cc4c(cc3C(=O)N(C)[C@H]2[C@@H]2OC(C)(C)O[C@@H]21)OCO4 | 280 | 3.01 |  |
| 11 | CC1(C)O[C@@H]2[C@H](O1)[C@@H](O)C=C1c3cc4c(cc3C(=O)N[C@H]12)OCO4 | 170 | 9.09 |  |
| 40 | C=CCO[C@H]1C=C2c3cc4c(cc3C(=O)N(CC=C)[C@H]2[C@@H]2OC(C)(C)O[C@@H]21)OCO4 | 250 | 6.25 |  |
| 65 | CC1(C)O[C@@H]2[C@H](O1)[C@@H](OCc1ccccc1)C=C1c3cc4c(cc3C(=O)N(Cc3ccccc3)[C@H]12)OCO4 | 200 | 3.08 |  |
| 85 | CCO[C@H]1C[C@@H]2c3cc4c(cc3C(=O)N(CC)[C@H]2[C@@H]2OC(C)(C)O[C@@H]21)OCO4 | 260 | 3.06 |  |
| > 11 | CC1(C)O[C@H]2[C@@H]3NC(=O)c4cc5c(cc4[C@H]3C[C@H](O)[C@H]2O1)OCO5 | 280 | < 25.5 |  |
| 22 | CO[C@@H]1[C@H](OC)[C@@H](OC)C=C2c3cc4c(cc3C(=O)N(C)[C@H]21)OCO4 | 180 | 8.2 |  |
| 63 | CC(=O)O[C@H]1C=C2c3cc4c(cc3C(=O)N[C@H]2[C@@H]2OC(C)(C)O[C@@H]21)OCO4 | > 300 | > 4.76 |  |
| 92 | CO[C@H]1C[C@@H]2c3cc4c(cc3C(=O)N(C)[C@H]2[C@@H]2OC(C)(C)O[C@@H]21)OCO4 | 250 | 2.17 |  |
| 15 | CCO[C@H]1C=C2c3cc4c(cc3C(=O)N(CC)[C@H]2[C@@H]2OC(C)(C)O[C@@H]21)OCO4 | 180 | 12 |  |
| 89 | CC(=O)O[C@H]1C[C@@H]2c3cc4c(cc3C(=O)N[C@H]2[C@@H]2OC(C)(C)O[C@@H]21)OCO4 | 270 | 3.03 |  |
